According to US20160029626A1 (priority 2011, published 2016):
“Also recorded” adds a separate entry of the source.

How the values were obtained:
X. fastidiosa biofilm = type: cell-based, Xylella fastidiosa 9a5c strain
X. fastidiosa [1] = type: cell-based, Xylella fastidiosa 9a5c strain
biofilm of X. fastidiosa = type: cell-based, Xylella fastidiosa 9a5c strain
[2] = tested on: citrus variegated chlorosis (CVC), X. fastidiosa; design: species or system orange pear (Citrus sinenses); details: in vivo
X. fastidiosa [3] = tested on: X. fastidiosa; design: species or system orange pear (Citrus sinenses); details: in vivo
X. fastidiosa [4] = tested on: X. fastidiosa; design: species or system orange pear (Citrus sinenses); details: in vivo; remark: listed apart in the source
[5] = Degradation of NAC in Hoagland nutrient solution in greenhouse (without plants), HPLC; type: physicochemical; details: 187.5 mg/mL expected without degradation
Description: A study to check the degradation of N-acetyl L-cysteine (NAC) was also performed in a Hoagland nutrient solution under the same conditions in which the in vivo experiment was carried out. The nutrient solution of Hoagland was prepared and placed in the receiving party of potted Leonard (without plants), as well as 600 mg N-acetyl L-cysteine (NAC).

orange pear plants = assay: Plant development under NAC treatment (phytotoxicity); type: in vivo, orange pear (Citrus sinenses)
Description: 2. Experiments using NAC on infected plants: An analysis was performed with quantitative PCR, as described in sequence, to quantify the initial population of bacteria in plants. The plants were then transferred to Leonard pots, constructed from 750 mL glass bottles, cut and painted with metallic paint to prevent light penetration. Previously autoclaved, vermiculite and sand were added to the top of the vessel and in the collecting part, a Hoagland Arnon (1950) nutrient solution (FIG. 8). Two experiments were performed with different doses of N-acetyl L-cysteine (NAC), both conducted in a greenhouse (see table 1 below).
The first of the experiments was a pilot, in which 120 mg and 600 mg of N-acetyl L -cysteine (NAC) were added to 250 mL of Hoagland & Arnon (1950). Control plants were also maintained without addition of N-acetyl L-cysteine (NAC). The second test had plants to which were added 120 mg, 600 mg and 1500 mg L30 N-acetyl cysteine (NAC) along with 250 mL of nutrient solution of Hoagland & Arnon (1950) and control experiments without the addition of the compound. 4 biological repetitions were performed for each treatment in each experiment.

[6] = tested on: Streptococcus epidermidis, and Haemophilus influenzae, Moraxella catarrhalis; details: Zheng et al., 1999; OLOFSSON et al., 2003; cited from earlier work
[7] = tested on: Peseudomonas aeruginosa, Klebsiella pneumoniae Enterobacter cloacae, and Staphylococcus aureus; details: Parry et al. (1976); cited from earlier work
[8] = Quantification of NAC by HPLC in nutrient solution of Leonard pots with plants (uptake by the plant); details: for Measured Conc of NAC in the samples collected: nutrient solution after one day with the plant

CC(=O)N[C@@H](CS)C(=O)O [NAC, N-acetyl L-cysteine]
cell mass of biofilms compared to the control condition (X. fastidiosa biofilm; different doses of NAC (1, 2, 6 mg/mL), 14 days): reduced compared to the control condition | cell mass of planktonic cells (X. fastidiosa biofilm; different doses of NAC (1, 2, 6 mg/mL), planktonic fraction): increase in mass | biofilm formation (X. fastidiosa biofilm; doses of 1.0, 2.0 or 6.0 mg/mL): inhibited biofilm formation | CFU/mL in biofilm vs control (X. fastidiosa [1]; 1 mg/mL NAC): lower than in the control biofilm | reduction of number of living cells present in the biofilm (X. fastidiosa [1]; 6 mg/mL NAC): ~100% | toxic action towards X. fastidiosa cells (X. fastidiosa [1]; in vitro, 1.0, 2.0 or 6.0 mg/mL): toxic action; also recorded: toxic to the cells of bacteria | CFU of planktonic cells in serial dilution (X. fastidiosa [1]; planktonic cells, NAC treatments, after 3 washes): not possible to count any CFU | lowering of EPS between control and treatment (biofilm of X. fastidiosa; 6 mg/ml NAC): about 45% | total amount of EPS vs control (biofilm of X. fastidiosa; NAC 1, 2, 6 mg/mL): In control, the total amount of EPS was greater | CVC symptoms after interruption of treatment [2]: symptoms were observed to be less severe; also recorded: chlorosis spots were not observed | CVC symptoms in the leaves [2]: visible reduction of symptoms; also recorded: some points chlorosis in the leaves, but in smaller quantities; also recorded: hardly possible to see symptoms; also recorded: visibly smaller | control of the bacterium (symptoms and number of bacterial cells in leaves) [2]: effective in controlling the bacterium | symptoms in treated plants [2]: significant reduction of symptoms | symptoms later than two months after interruption of treatment [2]: resurgence of symptoms | amount of bacteria in each plant by qPCR (X. fastidiosa [3]): does not appear to have been affected | number of X. fastidiosa cells isolated from plants after treatment (X. fastidiosa [4]): decrease in the number of X. fastidiosa cells; also recorded: strong decrease of bacteria | concentration of NAC remaining in Hoagland solution ([5]; after 1 day in greenhouse): 143140 µg/mL | concentration of NAC remaining in Hoagland solution ([5]; after 7 days in greenhouse): 63220 µg/mL | concentration of NAC remaining in Hoagland solution ([5]; after 14 days in greenhouse): 3150 µg/mL | plant development (orange pear plants; 1500 mg NAC in 250 mL nutrient solution): plant development was clearly affected; also recorded: fall of leaves, wilting and visible damage to the physiological development of the plant | plant development after interruption of treatment (orange pear plants; 1500 mg NAC, two months in soil without treatment): remained less developed | plant development (orange pear plants; lower doses (120 and 600 mg) NAC): do not cause problems for plant development | adhesion of human pathogenic bacteria in epithelial cells and surface abiotic [6]: reduce the adhesion | efficiency regarding the adhesion of bacteria [7]: demonstrated efficiency | absorption of the substance by the plant ([8]; 1500 mg NAC in 250 mL): absorption of the substance by the plant does not occur | transport of NAC by the plant ([8]; measured concentrations below those expected (lower doses)): could be transported by the plant | Measured Conc of NAC in the samples collected ([8]; total NAC 120 mg (expected 0.48 mg/mL)): 0.288 mg/mL | Measured Conc of NAC in the samples collected ([8]; total NAC 600 mg (expected 2.4 mg/mL)): 1.98 mg/mL | Measured Conc of NAC in the samples collected ([8]; total NAC 1500 mg (expected 6.0 mg/mL)): 6.156 mg/mL
